Laboratory results from US12297210B2, “Naphthyridine compounds and uses thereof” (Genentech, Inc., priority 2018, dated 2025).

Key:
[1] = target: T1, HPK full length, T165E S171E (Homo sapiens, UniProt Q92918, S171E/T165E); test: HPK1-FL HTRF Enzymatic Assay ("HTRF"); type: biochemical; conditions: ATP 1 mM, read-out: HPK1 Ki (nM) H = HTRF
T1 construct: HPK full length, T165E S171E: 0.125 nM
Procedure: Example B1: HPK1-FL HTRF Enzymatic Assay (“HTRF”)
HPK-FL enzyme phosphorylates Biotin-SLP-76 substrate in the presence of ATP at 1 mM and varying concentrations of test compound. Product is detected by FRET using Eu-anti-pSLP76 Ab and SA-XL665. Also see www.cisbio.com/HTRF for additional HTRF technology information.
• Echo555 compound dispenser • Agilent Bravo • Perkin Elmer Envision Final Assay Conditions: • HPK full length, T165E S171E: 0.125 nM • Biotin-SLP76: 100 nM • ATP: 1 mM (ATP Km=20 μM) • Eu-anti-pSLP76: 2 nM • SA-XL665: 8.3 nM • Preincubation time: 30 min • Kinase reaction time: 60 min • Temperature: ambient • Total volume: 12 μl • ATP^app Km: 17.7 μM Materials: • Assay plate: White ProxiPlate 384 F (PerkinElmer cat #6008289) • Kinase: HPK full length double mutant • Substrate: Biotin-SLP76 • ATP: 100 mM ATP • BSG: 2% BSG • DMSO: DMSO(Sigma cat #34869-100ML) • Reaction Buffer: H2O/50 mM HEPES, pH 7.5/10 mM MgCl2/2 mM TCEP/0.01% Brij-35/0.01% BSG • Detection mix: Eu-anti-pSLP76/SA-XL665 (Cisbio, #610SAXAC) Assay Procedure Ki Determination:
To a 384 well Proxiplate with 80 nL compound or DMSO spotted on was added 4 μl/well kinase mix. The mixture was preincubated for 30 minutes and then 4 μl/well substrate mix was added. The solution was incubated for 60 min and then 4 μl/well detection mix was added. The solution was incubated for another 60 min. The plates were then loaded onto a Perkin Elmer Envision and the TR-FRET signal was measured at 615 and 665 nm. A ratio of […] was used to calculate the % activity at each concentration of compound.

[2] = tested on: primary human pan T cells; test: Human T-Cell IL2 Induction Assay; type: cell-based; conditions: assayed concentration 0.31 μM; anti-CD3/anti-CD28 stimulated primary human pan T cells
Procedure: Example B3: Human T-Cell IL2 Induction Assay
Anti-CD3 and anti-CD28 activates TCR signaling in primary human pan T cells leading to IL-2 promoter induction. Secreted IL-2 in cell culture supernatant is detected by electrochemiluminescence using a capture antibody against IL-2 and an anti-IL-2 antibody labeled with SULFO-tag.
Incubate primary human pan T cells with varying concentrations of test compounds for 30 minutes in a humidified incubator at 37° C. and 5% CO2. Transfer cells to a plate pre-coated with a fixed concentration of anti-human CD3 (determined separately for each donor lot) and add soluble anti-human CD28 (final concentration=1 μg/ml). Stimulate cells in a humidified incubator at 37° C. and 5% CO2 for 4 hours. Transfer 25 μl of supernatant to a MSD single spot plate pre-coated with an anti-human IL-2 antibody. Incubate MSD plate overnight at 4° C. with gentle shaking. Wash MSD plate 4× with wash buffer. Add SULFO-tagged detection antibody at a 1:50 dilution and incubate at room temperature shaking for 2 hours. Wash MSD plate 4× with wash buffer and add 150 μl 2×MSD read buffer. Read on an MSD instrument. […]
Exemplary compounds of Formula (I) were tested in the human T-cell IL-2 induction assays. The % increase measured for IL-2 in cells treated by the test compounds relative to untreated cells are provided in Table B2 for certain compounds.

T1 sequence (Q92918 whole entry T165E/S171E): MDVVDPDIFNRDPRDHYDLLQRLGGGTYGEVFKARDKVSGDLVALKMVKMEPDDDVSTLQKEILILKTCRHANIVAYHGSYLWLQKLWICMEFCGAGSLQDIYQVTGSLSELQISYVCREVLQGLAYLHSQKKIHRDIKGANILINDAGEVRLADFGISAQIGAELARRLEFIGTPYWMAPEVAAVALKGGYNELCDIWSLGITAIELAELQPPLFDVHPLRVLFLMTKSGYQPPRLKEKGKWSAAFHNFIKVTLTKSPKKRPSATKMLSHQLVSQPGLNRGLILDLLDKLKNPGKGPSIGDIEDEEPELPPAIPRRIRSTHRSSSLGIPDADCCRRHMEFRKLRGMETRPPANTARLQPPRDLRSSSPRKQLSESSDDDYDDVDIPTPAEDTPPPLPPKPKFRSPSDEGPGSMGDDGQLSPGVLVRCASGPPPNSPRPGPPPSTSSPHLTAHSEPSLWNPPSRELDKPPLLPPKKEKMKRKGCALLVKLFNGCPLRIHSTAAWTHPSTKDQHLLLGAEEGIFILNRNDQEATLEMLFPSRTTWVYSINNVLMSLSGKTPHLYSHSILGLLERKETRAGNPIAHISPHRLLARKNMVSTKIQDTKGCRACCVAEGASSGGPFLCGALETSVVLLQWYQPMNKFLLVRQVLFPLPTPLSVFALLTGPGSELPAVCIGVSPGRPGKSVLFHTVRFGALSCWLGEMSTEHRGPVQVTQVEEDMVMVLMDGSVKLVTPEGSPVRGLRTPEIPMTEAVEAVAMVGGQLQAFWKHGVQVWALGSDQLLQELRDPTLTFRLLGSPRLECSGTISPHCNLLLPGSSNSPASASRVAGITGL

Ki [1]: 0.27 nM
SMILES: Cc1c(N)cncc1-c1cc2cc(Nc3cc4n(n3)CC(=O)N(C)CC43CC3)ncc2c(C)n1 [Compound 101, 2′-((6-(5-amino-4-methylpyridin-3-yl)-8-methyl-2,7-naphthyridin-3-yl)amino)-6′-methyl-5′,6′-dihydrospiro[cyclopropane-1,4′-pyrazolo[1,5-d][1,4]diazepin]-7′(8′H)-one]
% IL-2 increase relative to untreated cells [2]: 421%
